Data as given in US10842807B2, “Methods of treating neurodegenerative disorders comprising DNA methyltransferase inhibitors” (Washington University, priority 2016, dated 2020).
Entries after “also recorded” stand apart in the source; their conditions may differ.

Experiments:
Type in all cases: cell-based, mouse
[1] = test system: Htt-72Q-expressing primary cortical neurons; assay: MTS cell viability assay in Htt-expressing primary cortical neurons; conditions: for viability of Htt-72Q-expressing neurons (MTS assay): DIV 5 cortical neurons transduced with Htt lentivirus, treated with drug or DMSO (=0 μM), MTS at DIV 14, vs. Htt-72Q (0 μM)
Experimental: Mouse primary cortical and striatal neurons from embryonic day (E) 15.5 Swiss Webster mouse fetuses (Taconic) were first plated in the minimal essential medium (MEM) containing 10% FBS, 0.45% glucose, 1 mM sodium pyruvate, 2 mM glutamine, 20 U/ml penicillin and 20 μg/ml streptomycin, for 3 h and then maintained in serum-free Neurobasal medium (Life Technologies) containing NeuroCult™ SM1 neuronal supplement ([…] Technologies), 0.5 mM glutamine and 25 μM glutamate for the first 3 d in a humidified incubator (37° C. in 5% CO2). Half of the medium was replaced with Neurobasal medium with SM1 and 0.5 mM glutamine every 3 days. Primary cortical neurons plated on 96-well flat clear bottom black plates (Corning #3904) at 4×10^4 cells/well were infected with Htt exon1 expression lentivirus (Htt-25Q or Htt-72Q) or control empty vector lentivirus at 5 days in vitro (DIV 5). Primary striatal neurons plated on 96-well plates at 1×10^5 cells/well were infected with Htt exon1 expression lentivirus at DIV 4. Viral copy number was adjusted for transduction of neurons on the basis of titer measured using the Lenti-X qRT-PCR titration kit (Clontech), and equal numbers of viral particles of Htt-25Q and Htt-72Q expressing lentiviruses were used for transduction. For the experiments to test effects of DNMT inhibitors, neurons were treated with inhibitors six hours after Htt lentiviral infection. One half of the media was changed every 3 days with media containing new drug. In knockdown experiments in Htt-expressing neurons, primary cortical neurons were cotransduced with Htt-expressing lentivirus and Dnmt shRNA or control shRNA lentivirus at DIV 5. pLKO.1-TRC1-luciferase (Luci) and pLKO.1-TRC2-LacZ were used as control for RNAi with pLKO.1-TRC1-Dnmt3a and pLKO.1-TRC2-Dnmt1, respectively. Lentiviral particles were prepared by transfecting 293LE cells with the lentiviral plasmid of interest along with packaging plasmid psPAX2 and envelope plasmid pCMV-SVG as described previously^86. Four days after transfection, viruses in the conditioned media were collected and purified using Lenti-X Concentrator (Clontech). Primary cortical neurons from BACHD mouse embryos (E15.5) were individually plated into separate wells and treated at DIV 4 with decitabine or vehicle for 3.5 days.

[2] = test system: Htt-72Q-expressing primary cortical neurons; assay: Neurofilament (NF) immunofluorescence, neurite degeneration in cortical neurons; conditions: fixed at DIV 14; vs. Htt-72Q (0 μM)
Experimental: Mouse primary cortical and striatal neurons from embryonic day (E) 15.5 Swiss Webster mouse fetuses (Taconic) were first plated in the minimal essential medium (MEM) containing 10% FBS, 0.45% glucose, 1 mM sodium pyruvate, 2 mM glutamine, 20 U/ml penicillin and 20 μg/ml streptomycin, for 3 h and then maintained in serum-free Neurobasal medium (Life Technologies) containing NeuroCult™ SM1 neuronal supplement ([…] Technologies), 0.5 mM glutamine and 25 μM glutamate for the first 3 d in a humidified incubator (37° C. in 5% CO2). Half of the medium was replaced with Neurobasal medium with SM1 and 0.5 mM glutamine every 3 days. Primary cortical neurons plated on 96-well flat clear bottom black plates (Corning #3904) at 4×10^4 cells/well were infected with Htt exon1 expression lentivirus (Htt-25Q or Htt-72Q) or control empty vector lentivirus at 5 days in vitro (DIV 5). Primary striatal neurons plated on 96-well plates at 1×10^5 cells/well were infected with Htt exon1 expression lentivirus at DIV 4. Viral copy number was adjusted for transduction of neurons on the basis of titer measured using the Lenti-X qRT-PCR titration kit (Clontech), and equal numbers of viral particles of Htt-25Q and Htt-72Q expressing lentiviruses were used for transduction. […]
For the measurement of neurofilament (NF) immunofluorescence intensity, cortical and striatal neurons cultured in a 96-well plate were fixed in 4% paraformaldehyde (PFA) in PBS for 20 min nine and seven days after Htt lentiviral infection, respectively, permeabilized with 0.1% Triton X-100 in PBS for 15 min at room temperature, and subjected to indirect immunofluorescence with anti-NF (2H3) primary antibody and Alexa Fluor 568-conjugated goat anti-mouse IgG secondary antibody (Life Technologies). […] Following image background subtraction, the NF immunofluorescence intensity was quantified using an ImageJ-based macro. Image capture and quantification of Htt (EM48) immunofluorescence intensity were performed as described for those of NF. […] About 300 nuclei from three random fields in a well were counted. […]

[3] = test system: 5-mC in Bdnf promoter IV region; assay: MeDIP-qPCR of Bdnf promoter IV; conditions: Htt-72Q-expressing cortical neurons, 0.2 μM vs DMSO
Excerpt: FIG. 4A-4H illustrate that mutant Htt increased the levels of DNA methylation at Bdnf exon IV regulatory region in primary cortical neurons. (FIG. 4A) Schematic of the mouse Bdnf exon IV regulatory region near the TSS. The positions of CpG sites are indicated relative to the TSS. (FIG. 4B) DIV 5 primary cortical neurons were infected with lentivirus expressing Htt-25Q or Htt-72Q exon 1 fragment; 5 days later, genomic DNA was purified and subjected to bisulfite sequencing analysis. […] Increased DNA methylation was found in mutant Htt-expressing neurons compared to WT Htt-expressing neurons. 28-30 clones from 7 independent experiments were analyzed (See FIG. 11A) for the bisulfite sequencing data from each clone). The number above the black bar (Htt-72Q) represents the fold changes in methylated cytosine relative to the white bar (Htt-25Q) at the indicated position. (FIG. 4C) Genomic DNA was purified from primary cortical neurons transduced as in (B) and subjected to MeDIP with anti-5-mC antibody followed by qPCR. […]
Genomic DNA was isolated from primary cortical neurons using QIAamp DNA Mini Kit (QIAGEN) and fragmented by sonication using Bioruptor (Diagenode). […] The percentage input was calculated by first normalizing IP to input DNA using the formula (2^[(Ct(10% input)-3.32)-Ct(IP)]×100) as described previously^89. […]

[4] = Htt-72Q cortical neurons, MTS assay (FIG. 1B)

Compound	viability of Htt-72Q-expressing neurons (MTS assay) [1]	Htt-72Q-induced neurite degeneration (NF immunofluorescence intensity), cortical neurons [2]	levels of 5-mC in Bdnf promoter IV region (MeDIP) [3]	concentration giving nearly full protection [1, 4]	lowest concentration with significant neuroprotection [1, 4]
Nc1nc(=O)n([C@H]2C[C@H](O)[C@@H](CO)O2)cc1F [FdCyd, 5-fluoro-2′-deoxycytidine]	increased the viability of Htt-72Q-expressing neurons	protected neurons from Htt-72Q-induced neurite degeneration	decreased levels of 5-mC in Bdnf promoter IV region		
Nc1ncn([C@H]2C[C@H](O)[C@@H](CO)O2)c(=O)n1 [decitabine, 5-aza-2′-deoxycytidine]	increased the viability of Htt-72Q-expressing neurons; also recorded: increased the viability of mutant Htt-expressing neurons	blocked Htt-72Q-induced neurite degeneration	decreased levels of 5-mC in Bdnf promoter IV region	0.2 µM	0.02 µM
